The record followed here is patent US20240327407A1, “NOVEL INHIBITORS OF AUTOTAXIN” (CADILA HEAL THCARE LIMITED, priority 2021, published 2024).

pIC50: −log10 of the molar value.

The target in this experiment is ATX (Mus musculus (Mouse), UniProt Q9R1E6). Description: Mice serum ATX inhibitory activity (IC50 determination). Type of experiment: biochemical. The procedure:
ATX Inhibitory activity was determined in a biochemical or whole blood assay as described previously (Bretschneider, T. et al., SLAS Discov 2017, 22, 425). The biochemical reaction consisted of 50 mM Tris (pH 8.0), 3 mM KCl, 1 mM CaCl2, 1 mM Mg Cl2, […] NaCl and 0.1% bovine serum albumin, which was supplemented with 5 nM recombinant rat ATX, 5 μM 18:1 LPC and the test compound (0.1-10 μM). The reaction was stopped at 2 h by the addition of butanol, prior to the RapidFire-MS-based analysis.
The whole blood assay consisted of 45 μL μL heparinized mice/rat whole blood and the test compound (0.12-100 μM). The reaction was stopped after 1 h at 37° C. by addition of 100 μL 40 mM disodium hydrogen phosphate buffer containing 30 mM citric acid (pH 4) and 1 μM 17:0 LPA (internal standard). Afterwards the samples were treated a described above and analysed by LC-MS/MS. The data was analyzed using graph pad prism (v 7.03) to arrive at the half-maximal inhibitory concentrations (IC50) of the test compounds.
For `CC(C)[C@@H](NC(=O)c1cc(C(F)(F)F)ccc1F)C(=O)N1CCC2(CC1)CN(C)C[C@H]2c1ccc(F)cc1` [Compound 134, 2-fluoro-N-((R)-1-((S)-4-(4-fluorophenyl)-2-methyl-2,8-diazaspiro[4.5]decan-8-yl)-3-methyl-1-oxobutan-2-yl)-5-(trifluoromethyl)benzamide], the negative-log IC50 (pIC50) (as a rule, the IC50 on a negative log10 scale, so that one unit is a factor of ten) is 8.11.

Compound `Cc1ccnc(C(=O)N[C@@H](C(=O)N2CCC3(CC2)CC(=O)N(C)CC3c2ccccc2)C(C)C)c1` (some centres unmarked) [Compound 194] showed a pIC50 of 7.80.

`COc1ccc(C2CN(C)C(=O)C23CCN(C(=O)[C@H](NC(=O)c2cc(C(F)(F)F)ccc2F)C(C)C)CC3)cc1` (stereo partly drawn) [Compound 114, 2-fluoro-N-((2R)-1-(4-(4-methoxyphenyl)-2-methyl-1-oxo-2,8-diazaspiro[4.5]decan-8-yl)-3-methyl-1-oxobutan-2-yl)-5-(trifluoromethyl)benzamide] gave a pIC50 of 8.77.

`CC(C)C[C@@H](NC(=O)c1cc(C(F)(F)F)ccc1F)C(=O)N1CCC2(CC1)CN(C)CC2c1ccc(F)cc1` (stereo partly drawn) [Compound 147, 2-fluoro-N-((2R)-1-(4-(4-fluorophenyl)-2-methyl-2,8-diazaspiro[4.5]decan-8-yl)-4-methyl-1-oxopentan-2-yl)-5-(trifluoromethyl)benzamide] showed a negative logarithm of the IC50 (pIC50) of 8.39.

The compound `CN1CC(c2ccc(F)cc2)C2(CCN(C(=O)[C@H](NC(=O)c3cc(C(F)(F)F)ccc3F)C3CCCCC3)CC2)C1` (stereo partly drawn) [Compound 142, N-((1R)-1-cyclohexyl-2-(4-(4-fluorophenyl)-2-methyl-2,8-diazaspiro[4.5]decan-8-yl)-2-oxoethyl)-2-fluoro-5-(trifluoromethyl)benzamide] had a pIC50 of 8.36.

The compound `CC(C)[C@@H](NC(=O)c1cc(C(F)(F)F)ccc1F)C(=O)N1CCC2(CC1)C(=O)N(C(C)C)CC2c1ccc(F)cc1` (stereo partly drawn) [Compound 111, 2-fluoro-N-((2R)-1-(4-(4-fluorophenyl)-2-isopropyl-1-oxo-2,8-diazaspiro[4.5]decan-8-yl)-3-methyl-1-oxobutan-2-yl)-5-(trifluoromethyl)benzamide] showed a pIC50 of 7.47.

`CC(C)[C@@H](NC(=O)c1cc(C(F)(F)F)ccc1F)C(=O)N1CCC2(CC1)CN(C)C[C@@H]2c1ccc(F)cc1` [Compound 133, 2-fluoro-N-((R)-1-((R)-4-(4-fluorophenyl)-2-methyl-2,8-diazaspiro[4.5]decan-8-yl)-3-methyl-1-oxobutan-2-yl)-5-(trifluoromethyl)benzamide] had a pIC50 of 7.92.

Regarding `Cc1ccnc(C(=O)N[C@@H](C(=O)N2CCC3(CC2)CN(C)CC3c2ccc(F)cc2)C(C)C)c1` (stereo partly drawn) [Compound 129, N-((2R)-1-(4-(4-fluorophenyl)-2-methyl-2,8-diazaspiro-[4.5]decan-8-yl)-3-methyl-1-oxobutan-2-yl)-4-methylpicolinamide], the pIC50 was 8.47.

In the case of `CC(C)[C@@H](NC(=O)c1cc(C(F)(F)F)ccc1F)C(=O)N1CCC2(CC1)C(=O)N(C)CC2c1ccccc1` (stereo partly drawn) [Compound 44, 2-fluoro-N-((2R)-3-methyl-1-(2-methyl-1-oxo-4-phenyl-2,8-diazaspiro[4.5]decan-8-yl)-1-oxobutan-2-yl)-5-(trifluoromethyl)benzamide], the pIC50 is 8.40.

Compound `CC(C)[C@@H](NC(=O)c1cc(C(F)(F)F)ccc1F)C(=O)N1CCC2(CC1)C(=O)N(CC1CC1)CC2c1ccc(F)cc1` (stereo partly drawn) [Compound 112, N-((2R)-1-(2-(cyclopropylmethyl)-4-(4-fluorophenyl)-1-oxo-2,8-diazaspiro[4.5]decan-8-yl)-3-methyl-1-oxobutan-2-yl)-2-fluoro-5-(trifluoromethyl)benzamide] had a pIC50 of 7.13.

For the compound `CC(C)[C@@H](NC(=O)c1cc(C(F)(F)F)ccc1F)C(=O)N1CCC2(CC1)C(=O)N(C)CC2c1ccc(F)cc1` (stereo partly drawn) [Compound 103, 2-fluoro-N-((2R)-1-(4-(4-fluorophenyl)-2-methyl-1-oxo-2,8-diazaspiro[4.5]decan-8-yl)-3-methyl-1-oxobutan-2-yl)-5-(trifluoromethyl)benzamide], the negative logarithm of the IC50 (pIC50) was 8.16.

With `CCN1CC(c2ccc(F)cc2)C2(CCN(C(=O)[C@H](NC(=O)c3cc(C(F)(F)F)ccc3F)C(C)C)CC2)CC1=O` (stereo partly drawn) [Compound 177, N-((2R)-1-(9-ethyl-7-(4-fluorophenyl)-10-oxo-3,9-diazaspiro[5.5]undecan-3-yl)-3-methyl-1-oxobutan-2-yl)-2-fluoro-5-], the pIC50 is 7.76.

`COC(=O)N1CC(c2ccc(F)cc2)C2(CCN(C(=O)[C@H](NC(=O)c3cc(C(F)(F)F)ccc3F)C(C)C)CC2)C1` (stereo partly drawn) [Compound 130, methyl 8-((2-fluoro-5-(trifluoromethyl)benzoyl)-D-valyl)-4-(4-fluorophenyl)-2,8-diazaspiro[4.5]decane-2-carboxylate]: the pIC50 is 7.22.

On to `CC(C)[C@@H](NC(=O)c1cc(C(F)(F)F)ccc1F)C(=O)N1CCC2(CC1)CN(C(C)C)CC2c1ccc(F)cc1` (stereo partly drawn) [Compound 120, 2-fluoro-N-((2R)-1-(4-(4-fluorophenyl)-2-isopropyl-2,8-diazaspiro[4.5]decan-8-yl)-3-methyl-1-oxobutan-2-yl)-5-(trifluoromethyl)benzamide], for which the pIC50 was 7.35. The pIC50 values of the last two compounds are within 0.2 log units of each other.

The compound `CC(C)[C@@H](NC(=O)c1ccccc1F)C(=O)N1CCC2(CC1)C(=O)N(C)CC2c1ccccc1` (stereo partly drawn) [Compound 107, 2-fluoro-N-((2R)-3-methyl-1-(2-methyl-1-oxo-4-phenyl-2,8-diazaspiro[4.5]decan-8-yl)-1-oxobutan-2-yl)benzamide] showed a pIC50 of 7.18. The pIC50 values of the last two compounds are within 0.2 log units of each other.

`CC(C)[C@@H](NC(=O)c1cc(C(F)(F)F)ccc1F)C(=O)N1CCC2(CC1)C(=O)NCC2c1cccnc1` (stereo partly drawn) [Compound 57, 2-fluoro-N-((2R)-3-methyl-1-oxo-1-(1-oxo-4-(pyridin-3-yl)-2,8-diazaspiro[4.5]decan-8-yl)butan-2-yl)-5-(trifluoromethyl)benzamide] had a pIC50 of 7.25.

On to `CC(C)[C@@H](NC(=O)c1cccc(C(F)(F)F)c1)C(=O)N1CCC2(CC1)C(=O)N(C)CC2c1ccccc1` (stereo partly drawn) [Compound 108, N-((2R)-3-methyl-1-(2-methyl-1-oxo-4-phenyl-2,8-diazaspiro[4.5]decan-8-yl)-1-oxobutan-2-yl)-3-(trifluoromethyl)benzamide], for which the pIC50 was 7.79.

`Cc1cc(C)cc(C2CN(C)CC23CCN(C(=O)[C@H](NC(=O)c2cc(C(F)(F)F)ccc2F)C(C)C)CC3)c1` (stereo partly drawn) [Compound 138, N-((2R)-1-(4-(3,5-dimethylphenyl)-2-methyl-2,8-diazaspiro[4.5]decan-8-yl)-3-methyl-1-oxobutan-2-yl)-2-fluoro-5-(trifluoromethyl)benzamide]: the pIC50 is 7.39.

Compound `CC(C)[C@@H](NC(=O)c1cc(C(F)(F)F)ccc1F)C(=O)N1CCC2(CC1)OC(=O)NC2c1ccccc1` (stereo partly drawn) [Compound 115, 2-fluoro-N-((2R)-3-methyl-1-oxo-1-(2-oxo-4-phenyl-1-oxa-3,8-diazaspiro[4.5]decan-8-yl)butan-2-yl)-5-(trifluoromethyl)benzamide] showed a pIC50 of 7.13.

`CC(C)[C@@H](NC(=O)c1cc(C(F)(F)F)ccc1F)C(=O)N1CCC2(CC1)CN(C)CC2c1ccc(F)cc1` (stereo partly drawn) [Compound 119, 2-fluoro-N-((2R)-1-(4-(4-fluorophenyl)-2-methyl-2,8-diazaspiro[4.5]decan-8-yl)-3-methyl-1-oxobutan-2-yl)-5-(trifluoromethyl)benzamide]: the pIC50 was 8.15. Compared with the last compound, the pIC50 is 1.02 log units higher.

`CC(C)[C@@H](NC(=O)c1cc(C(F)(F)F)ccc1F)C(=O)N1CCC2(CC1)C(=O)N(C)CC2c1cccnc1` (stereo partly drawn) [Compound 56, 2-fluoro-N-((2R)-3-methyl-1-(2-methyl-1-oxo-4-(pyridin-3-yl)-2,8-diazaspiro[4.5]decan-8-yl)-1-oxobutan-2-yl)-5-(trifluoromethyl)benzamide]: the pIC50 is 7.88.

In the case of `CC(C)[C@@H](NC(=O)c1cc(C(F)(F)F)ccc1F)C(=O)N1CCC2(CC1)CC(=O)N(C)CC2c1ccccc1` (stereo partly drawn) [Compound 174, 2-fluoro-N-((2R)-3-methyl-1-(9-methyl-10-oxo-7-phenyl-3,9-diazaspiro[5.5]undecan-3-yl)-1-oxobutan-2-yl)-5-(trifluoromethyl)benzamide], the pIC50 was 7.95.

With `CC(C)[C@@H](NC(=O)c1cc(C(F)(F)F)ccc1F)C(=O)N1CCC2(CC1)CN(CC1CC1)CC2c1ccc(F)cc1` (stereo partly drawn) [Compound 121, N-((2R)-1-(2-(cyclopropylmethyl)-4-(4-fluorophenyl)-2,8-diazaspiro[4.5]decan-8-yl)-3-methyl-1-oxobutan-2-yl)-2-fluoro-5-(trifluoromethyl)benzamide], the pIC50 is 7.07. Against the preceding compound, the pIC50 is 0.88 log units lower.

For `CC(C)[C@@H](NC(=O)c1nn(C)c2ccccc12)C(=O)N1CCC2(CC1)CN(C)CC2c1ccc(F)cc1` (stereo partly drawn) [Compound 153, N-((2R)-1-(4-(4-fluorophenyl)-2-methyl-2,8-diazaspiro[4.5]decan-8-yl)-3-methyl-1-oxobutan-2-yl)-1-methyl-1H-indazole-3-carboxamide], the pIC50 was 7.32.

As to `CC(C)[C@@H](NC(=O)c1cc(C(F)(F)F)ccc1F)C(=O)N1CCC2(CC1)C(=O)N(C)C=C2c1ccccc1` [Compound 106, (R)-2-fluoro-N-(3-methyl-1-(2-methyl-1-oxo-4-phenyl-2,8-diazaspiro[4.5]dec-3-en-8-yl)-1-oxobutan-2-yl)-5-(trifluoromethyl)benzamide], the pIC50 is 7.25. The pIC50 values of the last two compounds are within 0.2 log units of each other.

Take `CC(C)[C@@H](NC(=O)c1cc(C(F)(F)F)ccc1F)C(=O)N1CCC2(CC1)CC(=O)NCC2c1ccc(F)cc1` (stereo partly drawn) [Compound 164, 2-fluoro-N-((2R)-1-(7-(4-fluorophenyl)-10-oxo-3,9-diazaspiro[5.5]undecan-3-yl)-3-methyl-1-oxobutan-2-yl)-5-(trifluoromethyl)benzamide]: the negative-log IC50 (pIC50) is 8.19.
